Measurements taken from patent US8415272B2, “Quinoline derivatives and their use as fungicides” (Syngenta Crop Protection LLC, priority 2008, dated 2013).

Assays:
[1] = test system: Septoria nodorum; assay: Leaf disk assay, Septoria nodorum (wheat glume blotch), preventive; type: in vivo; settings: Parastagonospora nodorum, foliar, 96 h, wheat leaf segments, assessed four days after inoculation, read-out: control of fungal infection, Septoria nodorum
[2] = test system: Phytophthora infestans; assay: whole plant or invertebrate; type: in vivo; settings: in Solanum lycopersicum, foliar, 96 h, read-out: control of fungal infection, Phytophthora infestans
[3] = test system: Septoria tritici; assay: Growth inhibition in nutrient broth, Septoria tritici (leaf blotch), photometric; type: cell-based; settings: Zymoseptoria tritici, PDB broth, 24 C, 72 hrs, read-out: control of fungal infection, Septoria tritici
[4] = test system: Plasmopara viticola; assay: Leaf disk assay, Plasmopara viticola (downy mildew of grapevine), preventive; type: in vivo; settings: foliar, 168 h, grapevine leaf disks, assessed seven days after inoculation, read-out: control of fungal infection, Plasmopara viticola
[5] = test system: Pythium ultimum; assay: Growth inhibition in potato dextrose broth, Pythium ultimum (damping off), photometric; type: cell-based; settings: Globisporangium ultimum, 24° C., 48 hours, read-out: control of fungal infection, Pythium ultimum
Procedure: The compounds were tested in a leaf disk assay, with methods described below. The test compounds were dissolved in DMSO and diluted into water to 200 ppm. In the case of the test on Pythium ultimum, they were dissolved in DMSO and diluted into water to 20 ppm. Pythium ultimum (Damping off): Mycelial fragments of the fungus, prepared from a fresh liquid culture, were mixed into potato dextrose broth. A solution of the test compound in dimethyl sulphoxide was diluted with water to 20 ppm then placed into a 96-well microtiter plate and the nutrient broth containing the fungal spores was added. The test plate was incubated at 24° C. and the inhibition of growth was determined photometrically after 48 hours.

[6] = test system: Erysiphe graminis f.sp. tritici; assay: Leaf disk assay, Erysiphe graminis f.sp. tritici (wheat powdery mildew), preventive; type: in vivo; settings: Blumeria graminis, foliar, 96 h, wheat leaf segments, assessed four days after inoculation, read-out: control of fungal infection, Erysiphe graminis f.sp. tritici
Procedure: The compounds were tested in a leaf disk assay, with methods described below. The test compounds were dissolved in DMSO and diluted into water to 200 ppm. In the case of the test on Pythium ultimum, they were dissolved in DMSO and diluted into water to 20 […] graminis f.sp. tritici (wheat powdery mildew): Wheat leaf segments were placed on agar in a 24-well plate and sprayed with a solution of the test compound. After allowing to dry completely, for between 12 and 24 hours, the leaf disks were inoculated with a spore suspension of the fungus. After appropriate incubation the activity of a compound was assessed four days after inoculation as preventive fungicidal activity.

[7] = test system: Puccinia recondita f.sp. tritici; assay: Leaf disk assay, Puccinia recondita f.sp. tritici (wheat brown rust), preventive; type: in vivo; settings: foliar, 216 h, wheat leaf segments, assessed nine days after inoculation, read-out: control of fungal infection, Puccinia recondita f.sp. tritici

C#Cc1cnc2c(Cl)cc(OC(SC)C(=O)NC(C)(C#CC)CC)cc2c1 (centres unmarked) [Example 121]
≥ 60%: pest or weed control at 200 ppm [1] | pest or weed control at 200 ppm [2] | inhibition of growth at 60 ppm [3] | pest or weed control at 200 ppm [4] | inhibition of growth at 20 ppm [5] | pest or weed control at 200 ppm [6]

C#Cc1cnc2c(Cl)cc(OC(SC)C(=O)NC(C)(C#N)COC)cc2c1 (centres unmarked) [Example 64]
≥ 60%: pest or weed control at 200 ppm [1] | pest or weed control at 200 ppm [2] | inhibition of growth at 60 ppm [3] | pest or weed control at 200 ppm [4] | pest or weed control at 200 ppm [7] | inhibition of growth at 20 ppm [5] | pest or weed control at 200 ppm [6]

C#Cc1cnc2ccc(OC(SC)C(=O)NC(C)(COC)COC)cc2c1 (centres unmarked) [Example 88]
≥ 60%: pest or weed control at 200 ppm [1] | pest or weed control at 200 ppm [2] | inhibition of growth at 60 ppm [3] | pest or weed control at 200 ppm [4] | pest or weed control at 200 ppm [7] | inhibition of growth at 20 ppm [5] | pest or weed control at 200 ppm [6]

CC#Cc1cnc2ccc(OC(SC)C(=O)NC(C)(C)C#CCOC)cc2c1 (centres unmarked) [Example 55]
≥ 60%: pest or weed control at 200 ppm [1] | pest or weed control at 200 ppm [2] | inhibition of growth at 60 ppm [3] | pest or weed control at 200 ppm [4] | pest or weed control at 200 ppm [7] | inhibition of growth at 20 ppm [5] | pest or weed control at 200 ppm [6]

CC#Cc1cnc2ccc(OC(SC)C(=O)NC(C)(C#N)COC)cc2c1 (centres unmarked) [Example 53]
≥ 60%: pest or weed control at 200 ppm [1] | pest or weed control at 200 ppm [2] | inhibition of growth at 60 ppm [3] | inhibition of growth at 20 ppm [5]

C#Cc1cnc2c(C)cc(OC(CC)C(=O)NC(C)(C)C#CCOC)cc2c1 (centres unmarked) [Example 112]
≥ 60%: pest or weed control at 200 ppm [1] | pest or weed control at 200 ppm [2] | inhibition of growth at 60 ppm [3] | pest or weed control at 200 ppm [4] | pest or weed control at 200 ppm [7] | pest or weed control at 200 ppm [6]

C#Cc1cnc2ccc(OC(OC)C(=O)NC(C)(C#C)COC)cc2c1 (centres unmarked) [Example 155]
≥ 60%: pest or weed control at 200 ppm [1] | pest or weed control at 200 ppm [7] | pest or weed control at 200 ppm [6]

C#Cc1cnc2c(C)cc(OC(SC)C(=O)NC(C)(C=O)COC)cc2c1 (centres unmarked) [Example 134]
≥ 60%: pest or weed control at 200 ppm [1] | pest or weed control at 200 ppm [2] | inhibition of growth at 60 ppm [3] | pest or weed control at 200 ppm [4] | pest or weed control at 200 ppm [7] | pest or weed control at 200 ppm [6]

C#Cc1cnc2ccc(OC(SC)C(=O)NC)cc2c1 (centres unmarked) [Example 96]
≥ 60%: pest or weed control at 200 ppm [1] | pest or weed control at 200 ppm [2] | inhibition of growth at 60 ppm [3] | pest or weed control at 200 ppm [4] | inhibition of growth at 20 ppm [5] | pest or weed control at 200 ppm [6]

C#Cc1cnc2ccc(OC(SC)C(=O)NC3(CO)CCC3)cc2c1 (centres unmarked) [Example 148]
≥ 60%: pest or weed control at 200 ppm [2] | inhibition of growth at 60 ppm [3] | pest or weed control at 200 ppm [4] | pest or weed control at 200 ppm [7] | pest or weed control at 200 ppm [6]

C#Cc1cnc2c(Cl)cc(OC(SC)C(=O)NC(C)(C)C#CCCCCl)cc2c1 (centres unmarked) [Example 123]
≥ 60%: pest or weed control at 200 ppm [1] | pest or weed control at 200 ppm [2] | inhibition of growth at 60 ppm [3] | pest or weed control at 200 ppm [4] | pest or weed control at 200 ppm [7] | pest or weed control at 200 ppm [6]

C#Cc1cnc2cc(F)c(OC(SC)C(=O)NC(C)(C)C(=O)OC)cc2c1 (centres unmarked) [Example 105]
≥ 60%: pest or weed control at 200 ppm [1] | pest or weed control at 200 ppm [2] | inhibition of growth at 60 ppm [3] | pest or weed control at 200 ppm [4] | pest or weed control at 200 ppm [7] | pest or weed control at 200 ppm [6]

C#Cc1cnc2ccc(OC(OC)C(=O)NC(C)(C#N)COC)cc2c1 (centres unmarked) [Example 128]
≥ 60%: pest or weed control at 200 ppm [1] | pest or weed control at 200 ppm [2] | inhibition of growth at 60 ppm [3] | pest or weed control at 200 ppm [4] | inhibition of growth at 20 ppm [5] | pest or weed control at 200 ppm [6]

C#Cc1cnc2ccc(OC(SC)C(=O)NC(C)(C#N)CSC)cc2c1 (centres unmarked) [Example 67]
≥ 60%: pest or weed control at 200 ppm [2] | inhibition of growth at 60 ppm [3] | pest or weed control at 200 ppm [4] | pest or weed control at 200 ppm [7] | inhibition of growth at 20 ppm [5] | pest or weed control at 200 ppm [6]

C#Cc1cnc2ccc(OC(OC)C(=O)NC(C)(C)C#CC)cc2c1 (centres unmarked) [Example 86]
≥ 60%: pest or weed control at 200 ppm [1] | pest or weed control at 200 ppm [2] | inhibition of growth at 60 ppm [3] | pest or weed control at 200 ppm [4] | pest or weed control at 200 ppm [7] | pest or weed control at 200 ppm [6]

C#Cc1cnc2ccc(OC(SC)C(=O)NCCO)cc2c1 (centres unmarked) [Example 194]
≥ 60%: pest or weed control at 200 ppm [1] | pest or weed control at 200 ppm [2] | pest or weed control at 200 ppm [4] | inhibition of growth at 20 ppm [5]

C#Cc1cnc2ccc(OC(SC)C(=O)NC3(C(OC)OC)CCC3)cc2c1 (centres unmarked) [Example 153]
≥ 60%: pest or weed control at 200 ppm [1] | pest or weed control at 200 ppm [2] | inhibition of growth at 60 ppm [3] | pest or weed control at 200 ppm [4] | inhibition of growth at 20 ppm [5] | pest or weed control at 200 ppm [6]

C#Cc1cnc2ccc(OC(SC)C(=O)NC(C)(C#C)CO)cc2c1 (centres unmarked) [Example 173]
≥ 60%: pest or weed control at 200 ppm [1] | pest or weed control at 200 ppm [2] | pest or weed control at 200 ppm [4] | inhibition of growth at 20 ppm [5] | pest or weed control at 200 ppm [6]

C#Cc1cnc2ccc(OC(SC)C(=O)NC3(C#N)CCC3)cc2c1 (centres unmarked) [Example 83]
≥ 60%: pest or weed control at 200 ppm [1] | pest or weed control at 200 ppm [2] | inhibition of growth at 60 ppm [3] | pest or weed control at 200 ppm [4] | pest or weed control at 200 ppm [7] | pest or weed control at 200 ppm [6]

C#Cc1cnc2ccc(OC(SC)C(=O)NC(C)(C)C#CCCOC)cc2c1 (centres unmarked) [Example 103]
≥ 60%: pest or weed control at 200 ppm [1] | pest or weed control at 200 ppm [2] | pest or weed control at 200 ppm [4] | pest or weed control at 200 ppm [7] | pest or weed control at 200 ppm [6]

COCC#CC(C)(C)NC(=O)C(Oc1ccc2ncc(C#CCO)cc2c1)SC (centres unmarked) [Example 49]
≥ 60%: pest or weed control at 200 ppm [2] | pest or weed control at 200 ppm [4] | pest or weed control at 200 ppm [7] | inhibition of growth at 20 ppm [5]

COCCC(C)(C)NC(=O)C(Oc1ccc2ncc(C#C[Si](C)(C)C)cc2c1)SC (centres unmarked) [Example 78]
≥ 60%: pest or weed control at 200 ppm [1] | pest or weed control at 200 ppm [2] | inhibition of growth at 60 ppm [3] | pest or weed control at 200 ppm [4] | pest or weed control at 200 ppm [6]

C#Cc1cnc2c(F)c(F)c(OC(SC)C(=O)NC(C)(C)C#CCOC)cc2c1 (centres unmarked) [Example 215]
≥ 60%: pest or weed control at 200 ppm [2] | inhibition of growth at 60 ppm [3] | pest or weed control at 200 ppm [4] | pest or weed control at 200 ppm [7] | inhibition of growth at 20 ppm [5] | pest or weed control at 200 ppm [6]
